Source: PMC11532403 (Signal Transduction and Targeted Therapy, 2024)
Values joined by “and” are separate entries in the source; they are usually repeats but may differ in a detail not shown here. Identical values can stand only once.

Columns and labels:
TT cells (RET^C634W) = test: Proliferation assay (CellTiter-Glo); type: cell-based; conditions: Homo sapiens, 72 hours, read-out: Cellular Viability IC50
Protocol: The cell lines HEK293T, Baf3, TT cell and NIH-3T3 were obtained from the Cell Resource Center, Peking Union Medical College (PCRC). […] All stably transformed BaF3 cells were cultured in RPMI 1640 without IL‐3. […] Cells were cultured at 37 °C under 5 % CO2 and high humidity conditions. […] Cell viability was assessed by luminescence using CellTiter-Glo 2.0 assay (Promega). IC50 curve fitting was performed using GraphPad Prism 9.0.

[1] = test system: Baf3-CCDC6-RET M918T cells; test: Proliferation assay (CellTiter-Glo); type: cell-based, murine; conditions: Mus musculus, read-out: Cellular Viability IC50
Protocol: (§1) The cell lines HEK293T, Baf3, TT cell and NIH-3T3 were obtained from the Cell Resource Center, Peking Union Medical College (PCRC). HEK293T and NIH-3T3 were maintained in DMEM high glucose medium (#C3113-0500, Vivacell) supplemented with 10 % FBS (#10500064, Gibco) and 1 % Penicillin-Streptomycin (#15140122, Gibco). The murine Pro‐B cell line Baf3 was cultured in RPMI 1640 medium (#C3010, Vivacell) supplemented with 10 % FBS, 1 % Penicillin-Streptomycin and 1 ng/mL recombinant murine interleukin-3 (#213-13, PeproTech). All stably transformed BaF3 cells were cultured in RPMI 1640 without IL‐3. The TT MTC cell was grown in Ham's F-12K medium (#21127022, Gibco) supplemented with 10 % FBS and 1 % Penicillin-Streptomycin. Cells were cultured at 37 °C under 5 % CO2 and high humidity conditions.
(§2) KIF5B-RET, CCDC6-RET and mutations were cloned into pCDHL vector and were verified by sequencing. Reah RET expression vectors were separately co‐transfected with psPAX2 and pMD2.G packaging plasmids into 60-70% confluent HEK 293T cells maintained in 2 mL of culture medium in six‐well plates using Polyethyleneimine (PEI) transfection grade. Virus containing media was harvested after 48 h and filtered with 0.45 μm membrane and stored at -80 °C prior to infection. For infection of Ba/F3 cells, 1 mL of viral supernatant and 8 μg/mL polybrene were added to 5 million cells per well in six‐well plates. Infected cells were selected with the addition of 1 μg/mL puromycin for 2 weeks in RPMI-1640/ 10% FBS/ 1 ng/mL IL-3 medium. Subsquently, puromycin-resistant cells were cultured in IL-3-free medium for 1 week and RET fusion proteins were confirmed by immunoblot analysis.
(§3) Cell viability was assessed by luminescence using CellTiter-Glo 2.0 assay (Promega). IC50 curve fitting was performed using GraphPad Prism 9.0.

Baf3-CCDC6-RET WT cells = test: Proliferation assay (CellTiter-Glo); type: cell-based, murine; conditions: Mus musculus, read-out: Cellular Viability IC50
Protocol: as §1, §2, §3

[2] = test system: RET signaling in BaF3-CCDC6-RET^V804M/M918T cells; test: RET signaling pathway phosphorylation in cells; type: cell-based
[3] = Liver microsome metabolic stability; type: in vitro ADME; conditions: 1 μM
Source text: The production of major metabolites in human liver microsomes is closer to that in rats or dogs than in mice or monkeys. The amounts of major metabolites produced in human liver microsomes was closer to the amount produced in […]. […] In addition to the same eight monophasic metabolites as in the in vitro study, five di-phasic metabolites, M6, M7, M8, M9 and M10, were detected in rat bile, but the peak areas of the di-phasic metabolites were much smaller than those of the monophasic metabolites.

CYP2C8 = biological target: T1, CYP2C8 (Homo sapiens, UniProt P10632); test: CYP inhibition in human liver microsomes; type: in vitro ADME; conditions: 0.5-25 μM
T1 construct: substrates of different CYP450 enzymes in mixed human liver microsomes; from tissue; host or cells: mixed human liver microsomes

CYP1A2 = test: CYP induction in hepatocytes; type: in vitro ADME, human; conditions: 1, 5, 50 μM, three donors
[4] = Acute toxicity, single oral gavage; conditions: both sexes, beagle, dog, in vivo, read-out: MTD, single dose
[5] = test system: Chinese hamster ovary cells; test: In vitro chromosome aberration test; type: cell-based
[6] = test system: patients with advanced RET-altered solid tumors; test: Phase 1 trial: treatment-related adverse events (CTCAE v5.0), DLT, MTD;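 note: Open-label single-arm first-in-human phase 1 study at six Chinese sites with 3 + 3 dose escalation and expansion, adverse events given descriptively as patient counts and percentages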
Protocol: This single-arm, open-label, first-in-human, dose-escalation and dose-expansion phase 1 study was conducted across six sites in China (NCT05278364). […] Dose escalation followed a 3 + 3 design, incorporating accelerated titration[41] for the first two dose levels and a modified Fibonacci dose escalation.[42]
The primary endpoints for this study were to determine the MTD, DLT, RP2D and safety. […] All responses required a confirmation of radiologic assessment at least 4 weeks after the first assessment.
The Pharmacokinetic Analysis Set (PKAS) included all patients with at least one evaluable PK sample (n = 43). Descriptive statistics were used for baseline data, summarizing continuous data with mean, standard deviation, median, minimum, and maximum, and categorical data with frequency and percentage. Safety analysis was descriptive, including adverse events summarized by frequency and severity. PK parameter analysis was performed using Phoenix WinNonlin version 8.0 (Certara L.P. [Pharsight], St. Louis, MO, USA), and results were summarized using geometric mean and coefficient of variation. CIs for response rates were calculated using the Clopper-Pearson method. […] All analysis were performed with SAS statistical software, version 9.2 (SAS Institute).

T1 sequence (P10632 whole entry): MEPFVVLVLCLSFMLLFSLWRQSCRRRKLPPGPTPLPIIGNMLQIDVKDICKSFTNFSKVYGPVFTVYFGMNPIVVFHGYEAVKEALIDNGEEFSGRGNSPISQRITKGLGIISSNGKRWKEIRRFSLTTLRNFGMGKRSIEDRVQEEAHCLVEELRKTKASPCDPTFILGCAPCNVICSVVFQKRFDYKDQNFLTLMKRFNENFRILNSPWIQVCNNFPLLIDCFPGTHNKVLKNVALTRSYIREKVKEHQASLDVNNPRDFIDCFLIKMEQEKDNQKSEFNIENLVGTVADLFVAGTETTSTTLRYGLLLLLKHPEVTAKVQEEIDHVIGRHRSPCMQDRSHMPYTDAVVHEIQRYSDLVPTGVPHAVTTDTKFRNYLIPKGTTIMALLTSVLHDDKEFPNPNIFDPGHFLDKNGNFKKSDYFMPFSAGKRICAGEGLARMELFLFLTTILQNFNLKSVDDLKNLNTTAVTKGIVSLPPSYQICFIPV

COc1ccc(CN2C3CC2CN(c2ccc(-c4cc(N5CC(C)(O)C5)cn5ncc(C#N)c45)cn2)C3)cn1 [SY-5007, 6-(3-hydroxy-3-methylazetidin-1-yl)-4-(6-(6-((6-methoxypyridin-3-yl)methyl)-3,6-diazabicyclo[3.1.1]heptan-3-yl)pyridin-3-yl)pyrazolo[1,5-a]pyridine-3-carbonitrile]
IC50 (TT cells (RET^C634W)): 9.11 nM
IC50 [1]: 5.44 nM
IC50 (Baf3-CCDC6-RET WT cells): 10.2 nM
Concentration of saturation [2]: 100 nM
Concentration with significant inhibitory effect on RET signaling [2]: 10 nM
Metabolic half-time ([3]; dog liver microsomes): 280 min
Metabolic half-time ([3]; human liver microsomes): 166 min
Metabolic half-time ([3]; monkey liver microsomes): 57.9 min
Metabolic half-time ([3]; mouse liver microsomes): 109 min
Metabolic half-time ([3]; rat liver microsomes): 384 min
IC50 (CYP2C8): 9750 nM
CYP1A2 induction (CYP1A2): no induction
MTD [4]: 200 mg/kg
Chromosome aberration test result [5]: negative
Dose-limiting toxicity (DLT) ([6]; 20 mg QD to 200 mg BID): No dose-limiting toxicity (DLT) was observed
Albuminuria ([6]; All Grade, Total (n = 122)): 45 (36.9) n (%)
Anemia ([6]; All Grade, Total (n = 122)): 27 (22.1) n (%)
Any TRAE ([6]; All Grade, Total (n = 122)): 96.7 n (%) and 118 (96.7) n (%)
Conjugated Hyperbilirubinemia ([6]; All Grade, Total (n = 122)): 23 (18.9) n (%)
Diarrhea ([6]; All Grade, Total (n = 122)): 54.1 n (%) and 66 (54.1) n (%)
Dry mouth ([6]; All Grade, Total (n = 122)): 40 (32.8) n (%)
Facial edema ([6]; All Grade, Total (n = 122)): 35 (28.7) n (%)
Hyperbilirubinemia ([6]; All Grade, Total (n = 122)): 51 (41.8) n (%)
Hyperglycemia ([6]; All Grade, Total (n = 122)): 22 (18.0) n (%)
Hyperphosphatemia ([6]; All Grade, Total (n = 122)): 42 (34.4) n (%)
Hypertension ([6]; All Grade, Total (n = 122)): 50 (41.0) n (%)
Hypertriglyceridemia ([6]; All Grade, Total (n = 122)): 55 (45.1) n (%)
Hyperuricemia ([6]; All Grade, Total (n = 122)): 41 (33.6) n (%)
Hypoalbuminemia ([6]; All Grade, Total (n = 122)): 33 (27.0) n (%)
Hypocalcemia ([6]; All Grade, Total (n = 122)): 34 (27.9) n (%)
Hyponatremia ([6]; All Grade, Total (n = 122)): 23 (18.9) n (%)
Hypopotassemia ([6]; All Grade, Total (n = 122)): 19 (15.6) n (%)
Hypothyroidism ([6]; All Grade, Total (n = 122)): 38 (31.1) n (%)
Increased alanine aminotransferase ([6]; All Grade, Total (n = 122)): 56.6 n (%) and 69 (56.6) n (%)
Increased aspartate aminotransferase ([6]; All Grade, Total (n = 122)): 69.7 n (%) and 85 (69.7) n (%)
Increased blood alkaline phosphatase ([6]; All Grade, Total (n = 122)): 43 (35.2) n (%)
Increased blood creatine ([6]; All Grade, Total (n = 122)): 45 (36.9) n (%)
Increased blood creatine phosphokinase ([6]; All Grade, Total (n = 122)): 40 (32.8) n (%)
Increased blood creatine phosphokinase MB ([6]; All Grade, Total (n = 122)): 54 (44.3) n (%)
Increased blood lactate dehydrogenase ([6]; All Grade, Total (n = 122)): 51 (41.8) n (%)
Increased γ-Glutamyl transferase ([6]; All Grade, Total (n = 122)): 28 (23.0) n (%)
Leukopenia ([6]; All Grade, Total (n = 122)): 56 (45.9) n (%)
Lymphopenia ([6]; All Grade, Total (n = 122)): 30 (24.6) n (%)
Neutropenia ([6]; All Grade, Total (n = 122)): 54.1 n (%) and 66 (54.1) n (%)
Palmoplantar erythema syndrome ([6]; All Grade, Total (n = 122)): 23 (18.9) n (%)
Peripheral edema ([6]; All Grade, Total (n = 122)): 23 (18.9) n (%)
Thrombocytopenia ([6]; All Grade, Total (n = 122)): 50 (41.0) n (%)
Weakness ([6]; All Grade, Total (n = 122)): 20 (16.4) n (%)
Weight loss ([6]; All Grade, Total (n = 122)): 22 (18.0) n (%)
Xeromycteria ([6]; All Grade, Total (n = 122)): 21 (17.2) n (%)
Conjugated Hyperbilirubinemia ([6]; Grade ⩾ 3, dose group): 0 (0.0) n (%)
Dry mouth ([6]; Grade ⩾ 3, dose group): 0 (0.0) n (%)
Facial edema ([6]; Grade ⩾ 3, dose group): 0 (0.0) n (%)
Hyperglycemia ([6]; Grade ⩾ 3, dose group): 0 (0.0) n (%)
Hyperphosphatemia ([6]; Grade ⩾ 3, dose group): 0 (0.0) n (%)
Hyperuricemia ([6]; Grade ⩾ 3, dose group): 0 (0.0) n (%)
Hypoalbuminemia ([6]; Grade ⩾ 3, dose group): 0 (0.0) n (%)
Hypothyroidism ([6]; Grade ⩾ 3, dose group): 0 (0.0) n (%)
Increased blood alkaline phosphatase ([6]; Grade ⩾ 3, dose group): 0 (0.0) n (%)
Increased blood creatine ([6]; Grade ⩾ 3, dose group): 0 (0.0) n (%)
Increased blood lactate dehydrogenase ([6]; Grade ⩾ 3, dose group): 0 (0.0) n (%)
Peripheral edema ([6]; Grade ⩾ 3, dose group): 0 (0.0) n (%)
Xeromycteria ([6]; Grade ⩾ 3, dose group): 0 (0.0) n (%)
Dose discontinuation due to TRAE ([6]; n = 122): 2 (1.6%) n (%)
Dose interruption due to diarrhea ([6]; n = 122): 10.7%
Dose interruption due to hypertension ([6]; n = 122): 12.3%
Dose reduction due to hypertension ([6]; n = 122): 5.7%
TRAE-induced dose interruption ([6]; n = 122): 56 (45.9%) n (%)
TRAE-induced dose reduction ([6]; n = 122): 29 (23.8%) n (%)
Treatment-related deaths ([6]; n = 122): no treatment-related deaths
Treatment-related serious adverse events (TRSAEs) ([6]; n = 122): 13 (10.7%) n (%)
Maximum tolerated dose (MTD) ([6]; up to 200 mg BID): not reached
